Measurements: patent publication US20130243847A1, “ACTIVATED CREATININE AND PRECURSORS THEREOF AS ANTIBACTERIAL AGENTS, COMPOSITIONS AND PRODUCTS CONTAINING SUCH AGENTS AND USE THEREOF” (BOARD OF REGENTS OF THE UNIVERSITY OF NEBRASKA, priority 2010, published 2013)

Legend:
Assay type in all cases: cell-based
S. aureus = test: Disc diffusion assay of creatine esters (Example 6); details: approx. 50 μL anhydrous polyethylene glycol carrier with 28% by weight agent
Method: Four (4) different creatine esters were prepared according to the method of U.S. Pat. No. 6,897,334 to Vennerstrom. The esters thus prepared were activated in the manner described herein to impart antibacterial activity thereto. Four (4) test formulations were prepared, each including approximately 50 μL of an anhydrous polyethylene glycol carrier containing 28% by weight of a different creatine ester. Each formulation was added to a 6 mm disc and inverted onto a brain heart infusion agar plate that was previously spread with S. aureus at 10^5 organisms per mL. Plates were incubated at 37° C. overnight and the clear zones showing inhibition of bacterial growth were measured.

[1] = tested on: Pseudomonas aeruginosa laboratory strain 27853; test: Disc diffusion assay, CEE vs gentamicin; details: P. aeruginosa laboratory strain 27853; 50 mg anhydrous topical cream with 28% by weight agent; gentamicin 10 μg disc
Method: (§1) This testing involved the use of 50 mg of an anhydrous topical cream containing the antibacterial agent of the invention in an amount of 28% by weight and 10 μg of gentamicin, impregnated into a standard commercially available disc (Remel, Lenoxa Kans.).

[2] = tested on: Staphylococcus aureus laboratory strain 29213; test: Disc diffusion assay, CEE vs gentamicin; details: S. aureus laboratory strain 29213; 50 mg anhydrous topical cream with 28% by weight agent; gentamicin 10 μg disc
Method: as §1

[3] = tested on: Acinetobacter baumannii high level resistance (HLR); test: Disc diffusion assay, CEE vs gentamicin; details: A. baumannii HLR; 50 mg anhydrous topical cream with 28% by weight agent; gentamicin 10 μg disc
Method: as §1

[4] = tested on: Candida albicans laboratory strain 24433; test: Disc diffusion assay, CEE vs gentamicin; details: C. albicans laboratory strain 24433; 50 mg anhydrous topical cream with 28% by weight agent; gentamicin 10 μg disc
Method: as §1

[5] = tested on: Escherichia coli laboratory strain 35150; test: Disc diffusion assay, CEE vs gentamicin; details: E. coli laboratory strain 35150; 50 mg anhydrous topical cream with 28% by weight agent; gentamicin 10 μg disc
Method: as §1

[6] = tested on: Pseudomonas aeruginosa high level resistance (HLR); test: Disc diffusion assay, CEE vs gentamicin; details: P. aeruginosa HLR; 50 mg anhydrous topical cream with 28% by weight agent; gentamicin 10 μg disc
Method: as §1

[7] = tested on: Staphylococcus aureus methicillin resistant (MRSA); test: Disc diffusion assay, CEE vs gentamicin; details: S. aureus MRSA; 50 mg anhydrous topical cream with 28% by weight agent; gentamicin 10 μg disc
Method: as §1

[8] = tested on: Enterococcus faecium vancomycin resistant (VRE); test: Disc diffusion assay, CEE vs gentamicin; details: E. faecium VRE; 50 mg anhydrous topical cream with 28% by weight agent; gentamicin 10 μg disc
Method: as §1

[9] = tested on: Enterococcus faecalis laboratory strain 29212; test: Disc diffusion assay, CEE vs gentamicin; details: E. faecalis laboratory strain 29212; 50 mg anhydrous topical cream with 28% by weight agent; gentamicin 10 μg disc
Method: as §1

[10] = tested on: Escherichia coli beta lactamase producer (ESBL); details: E. coli ESBL; 50 mg anhydrous topical cream with 28% by weight agent; gentamicin 10 μg disc
Method: as §1

Staphylococcus aureus = test: Disc assay of creatinine activated with different acids (Example 1, FIG. 1); details: for antibacterial activity after acid activation (FIG. 1): 5 mg acidified creatinine in Eridex on 6 mm disc, pH 5.0-5.5, S. aureus 10^5 per mL; for antibacterial activity of acid in Eridex alone: without creatinine at pH 5.5
Method: A 2 molar solution of anhydrous creatinine (Sigma-Aldrich Chemical Co. St. Louis, Mo.) was prepared in water (113 mg in 0.5 ml H2O) and adjusted to pH 5.0-5.5 with different acids. Twenty five microliters of each pH adjusted solution was added to 30 milligrams of a powdered carrier, Eridex™, (crystalline sugar alcohol) (Cargill Inc. Cedar Rapids, Iowa), and stirred into a thickened slurry. Approximately 50 microliters of each mixture, containing 5 mg of acidified creatinine, was applied to a 6 mm disc and inverted onto a brain heart infusion agar plate that was spread one hour prior with Staphylococcus aureus diluted to 10^5 organisms per milliliter. Plates were incubated at 37° C. overnight and the clear zones showing inhibition of bacterial growth were measured. Each sample was run in duplicate and reported as an average +/−1 mm of the two measurements. Creatinine HCl was used as an internal standard on each plate to provide uniformity from plate to plate (measurements varied <0.5 mm). Hydrochloride sig, a commercial creatinine HCl salt from Sigma-Aldrich, was used at pH 5.0 with no adjustment.

CN(CC(=O)OCc1ccccc1)C(=N)N [Benzyl]
Zone of Inhibition (S. aureus): 23 mm

Gentamicin [Gn, reference compound]
Zone of Inhibition [1]: 21 mm
Zone of Inhibition [2]: 24 mm
Zone of Inhibition [3]: 6 mm
Zone of Inhibition [4]: 8 mm
Zone of Inhibition [5]: 21 mm
Zone of Inhibition [6]: 8 mm
Zone of Inhibition [7]: 7 mm
Zone of Inhibition [8]: 8 mm
Zone of Inhibition [9]: 14 mm
Zone of Inhibition [10]: 24 mm

sulfuric
antibacterial activity after acid activation (FIG. 1) (Staphylococcus aureus): little to no antibacterial activity

citrate
antibacterial activity after acid activation (FIG. 1) (Staphylococcus aureus): significant activity

CC(=O)O [acetic acid, reference compound]
antibacterial activity of acid in Eridex alone (Staphylococcus aureus): no antibacterial activity

O=C(O)CC(O)(CC(=O)O)C(=O)O [citric acid, reference compound]
antibacterial activity of acid in Eridex alone (Staphylococcus aureus): no antibacterial activity

CCCCCCCCOC(=O)CN(C)C(=N)N [Octyl]
Zone of Inhibition (S. aureus): 27 mm

fumaric
antibacterial activity after acid activation (FIG. 1) (Staphylococcus aureus): little to no antibacterial activity

CC(=O)O [acetate]
antibacterial activity after acid activation (FIG. 1) (Staphylococcus aureus): significant activity
antibacterial activity after acid activation (FIG. 1) (Staphylococcus aureus; listed as creatinine activated with acetic acid): substantially greater antibacterial activity than creatinine activated with nitric or hydrochloric acid
